Assays:
Type in all cases: in vivo, human
[1] = Serum estradiol concentration during transdermal estradiol treatment
Protocol: Standard prophylactic breast irradiation was offered to all patients prior to therapy to reduce the risk of gynecomastia. Six […]® estradiol patches (25.0 cm^2, 7.6 mg estradiol per patch) were adhered to the patients once every 7 days for a period of at least 4 weeks for a dosage of 0.6 mg estradiol/day (in vivo estradiol delivery per patch is 0.1 mg/day). Certain cognitive functions of the patients were evaluated prior to starting estradiol treatment and approximately 4 weeks after starting estradiol treatment. Specifically, memory was assessed using immediate and delayed Paragraph Recall test and working memory was assessed using the SOP and Trails tests. Serum estradiol concentration was also measured after approximately 4 weeks of treatment, as well as other standard monitoring measurements. The Paragraph Recall test was performed as described above. The SOP test was performed as described above and was computer-administered with 8 and 10 card sets. Each card of the set was depicted on a computer screen and the subject selected the drawing for each card by pressing a corresponding number on the keyboard. The Trails test was performed as described above. The monitoring was similar as described above in connection with example 1. Certain cognitive functions of the patients were evaluated at the beginning of the study and then approximately 4 weeks later. In the case of patients receiving estradiol treatments, the patients were evaluated prior to the initial estradiol and then approximately 4 weeks after starting estradiol treatment. Verbal memory was assessed using the immediate Paragraph Recall test and working memory was assessed using the Trails tests. Serum estradiol concentration was also measured after approximately 4 weeks of treatment, as well as other standard monitoring measurements.

[2] = test system: men with androgen-independent prostate cancer; test: Trails working memory test
From the text: A further illustrative working memory test is known as the Trails test. This test is a dot-to-dot paper pencil test where the subject connects dots (1-2-3-4 etc.). On a second measure they connect dots but the dots are labeled alternately in letters and numbers so they have to shift their cognitive set and keep in mind where they are in each set: 1 to A to 2 to B to 3 etc. Their score is the number of seconds to complete the dot to dot. Estradiol was transdermally administered to nineteen men with androgen-independent prostate cancer following a protocol outlined below. Standard prophylactic breast irradiation was offered to all patients prior to therapy to reduce the risk of gynecomastia. […] Certain cognitive functions of the patients were evaluated prior to starting estradiol treatment and approximately 4 weeks after starting estradiol treatment. Specifically, memory was assessed using immediate and delayed Paragraph Recall test and working memory was assessed using the SOP and Trails tests. Serum estradiol concentration was also measured after approximately 4 weeks of treatment, as well as other standard monitoring measurements. […] Certain cognitive functions of the patients were evaluated at the beginning of the study and then approximately 4 weeks later. […] Verbal memory was assessed using the immediate Paragraph Recall test and working memory was assessed using the Trails tests. […]

[3] = test system: men with androgen-independent prostate cancer; test: Subject Ordered Pointing (SOP) working memory test
From the text: An illustrative working memory test is known as Subject Ordered Pointing (SOP). SOP is described, for example, in Janowsky et al., “Sex steroids modify working memory,” J Cogn Neuroscience 12(3):407-14, 2000 and Petrides et al., “Deficits on subject-ordered tasks after frontal- and temporal-lobe lesions in man,” Neuropsychologia 20:249-62, 1982. In general, subjects are presented with stacks of cards (6, 8, 10 or 12 cards/sets). […] The subject is to touch one drawing on each card in any order, but not touch the same drawing on subsequent cards in the set. Subjects err when they touch a drawing that had been touched on a previous card in the set. Therefore, the subject has to remember previous drawings touched while planning a future response. Subjects repeat each 6, 8, 10, and 12 card set three times. The total number of errors across all card sets is the measure of interest. […] Subjects are instructed to do the task at their own pace, and to try to not go too quickly or too slowly.
(§1) Estradiol was transdermally administered to nineteen men with androgen-independent prostate cancer following a protocol outlined below.
(§2) Standard prophylactic breast irradiation was offered to all patients prior to therapy to reduce the risk of gynecomastia. Six Climara® estradiol patches (25.0 cm^2, 7.6 mg estradiol per patch) were adhered to the patients once every 7 days for a period of at least 4 weeks for a dosage of 0.6 mg estradiol/day (in vivo estradiol delivery per patch is 0.1 mg/day).
Certain cognitive functions of the patients were evaluated prior to starting estradiol treatment and approximately 4 weeks after starting estradiol treatment. Specifically, memory was assessed using immediate and delayed Paragraph Recall test and working memory was assessed using the SOP and Trails tests. Serum estradiol concentration was also measured after approximately 4 weeks of treatment, as well as other standard monitoring measurements. The Paragraph Recall test was performed as described above. The SOP test was performed as described above and was computer-administered with 8 and 10 card sets. […]

[4] = test system: prostate cancer patients progressing on ADT; test: Profile of Mood States (POMS) test, confusion subscale; conditions: Example 2, prostate cancer patients progressing on ADT
From the text: Research subjects consisted of healthy men, and men who have been diagnosed with prostate cancer that were between the ages of 45-100. The subjects were classified into three groups: (1) Prostate cancer patients progressing on ADT and before and after starting second line therapy with transdermal estradiol as described above; (2) Prostate cancer patients continuing ADT; and (3) Age-matched healthy controls. The treatment regimen of these men was not modified as part of their participation in this study. Exclusion criteria included currently taking hormone replacement, active malignancy other than prostate cancer or non-melanoma skin cancer, major surgery within last 4 weeks, and score less than 25 on the Mini-Mental State Exam (a screening measure for dementia). The participant characteristics are shown below in Table 3.
The estradiol administration was the same as in example 1.
Mood was assessed using a Profile of Mood States (POMS) test as described in McNair et al, Profile of mood states manual (Education and Industrial Testing Service, San Diego (1971)). Participants completed the POMS test at both testing sessions (i.e., beginning of study and 4 weeks later). The scale asks participants to rate how they felt in the last week. Responses are categorized into six subscales (tension-anxiety, depression, anger, fatigue, confusion and vigor). […]

[5] = test system: men with androgen-independent prostate cancer; test: Toxicity monitoring (thromboembolic complications) during transdermal estradiol; conditions: 0.6 mg estradiol/day transdermal, at time of most recent analysis
Protocol: as §2
(§3) Certain cognitive functions of the patients were evaluated prior to starting estradiol treatment and approximately 4 weeks after starting estradiol treatment. Specifically, memory was assessed using immediate and delayed Paragraph Recall test and working memory was assessed using the SOP and Trails tests. Serum estradiol concentration was also measured after approximately 4 weeks of treatment, as well as other standard monitoring measurements. The Paragraph Recall test was performed as described above. The SOP test was performed as described above and was computer-administered with 8 and 10 card sets. Each card of the set was depicted on a computer screen and the subject selected the drawing for each card by pressing a corresponding number on the keyboard. The Trails test was performed as described above.

[6] = test system: men with androgen-independent prostate cancer; test: Paragraph Recall test (immediate and delayed; long-term/verbal memory)
Protocol: One illustrative declarative memory test for assessing the medial temporal lobe memory system is known as a Paragraph Recall Task. This task is a subtest of the Weschler Memory Scale—Revised. A subject is read a short story and then immediately asked to recall the story. After an approximate 30 minute retention interval, they are asked to recall the story again. The recall responses are scored for number of story items correctly recalled and there is a standard scoring system. There are two stories for each administration so the total score is the total of both stories combined; one for immediate memory; and one for delayed memory.
as §1, §2, §3
(§4) The monitoring was similar as described above in connection with example 1. Certain cognitive functions of the patients were evaluated at the beginning of the study and then approximately 4 weeks later. In the case of patients receiving estradiol treatments, the patients were evaluated prior to the initial estradiol and then approximately 4 weeks after starting estradiol treatment. Verbal memory was assessed using the immediate Paragraph Recall test and working memory was assessed using the Trails tests. Serum estradiol concentration was also measured after approximately 4 weeks of treatment, as well as other standard monitoring measurements.

[7] = Serum testosterone (total and free) before and after transdermal estradiol; conditions: Visit 2, after about 4 weeks transdermal estradiol, Example 2
From the text: Research subjects consisted of healthy men, and men who have been diagnosed with prostate cancer that were between the ages of 45-100. The subjects were classified into three groups: (1) Prostate cancer patients progressing on ADT and before and after starting second line therapy with transdermal estradiol as described above; (2) Prostate cancer patients continuing ADT; and (3) Age-matched healthy controls. The treatment regimen of these men was not modified as part of their participation in this study. […]
as §4

[8] = Example 2, prostate cancer patients progressing on ADT
[9] = Example 1, men with AIPC treated with estradiol
[10] = on estrogen, about 4 weeks, 0.6 mg/day transdermal, data from 18 subjects
[11] = on estradiol vs pre-treatment, about 4 weeks
[12] = on estrogen, about 4 weeks, 0.6 mg estradiol/day transdermal, men with AIPC

## C[C@]12CC[C@@H]3c4ccc(O)cc4CC[C@H]3[C@@H]1CC[C@@H]2O [Estradiol, estra-1,3,5(10)-triene-3,17β-diol]
[1]; Visit 2, after about 4 weeks transdermal estradiol, Example 2
  Estradiol (serum): 428.8 (280.7) pg/mL
[1]; human, serum, other: transdermal, 0.6 mg/day, 1 month of treatment, Example 1, read-out: Estradiol, mean ± 95% CI
  concentration at 1 month: 0.46 ± 0.126 ng/mL
[1]; human, serum, other: transdermal, 0.6 mg/day, 2 months of treatment, Example 1, read-out: Estradiol, mean ± 95% CI
  concentration at 2 months: 0.371 ± 0.115 ng/mL
[2]; [8]
  working memory (Trails test, FIG. 1): did not affect working memory
[2]; on estrogen, about 4 weeks, 0.6 mg/day transdermal, data from 15 subjects
  Trails (seconds B-A): 69.9 s
[3]; [9]
  working memory (Subject-Ordered and Trails tests): no change in working memory
[3]; [10]
  Subject Ordered (# of errors), 8 item: 6.3 # of errors
  Subject Ordered (# of errors), 10 item: 7.0 # of errors
[4]
  confusion (POMS, FIGS. 3 and 4): trend for men receiving estradiol to report a decrease in confusion
[5]
  thromboembolic complications or other significant toxicity: no thromboembolic complications or other significant toxicity issues
[6]; [9]
  long-term memory: significant improvement in their long-term memory
[6]; [8]
  verbal memory performance (immediate Paragraph Recall, FIG. 2): improved verbal memory performance
[6]; [11]
  delayed Paragraph Recall test score improvement: 27%
  immediate Paragraph Recall test score improvement: 19%
[6]; [12]
  Paragraph Recall (delay; # correct): 18.8 # correct
  Paragraph Recall (immediate; # correct): 22.9 # correct
[7]
  Free T: 3.5 (1.9) pmol/L
  Total T: 9.7 (3.9) ng/dL

Source: patent US20060019938A1, “Estrogen administration for treating male cognitive dysfunction or improving male cognitive function” (priority 2003, published 2006)
